Each structure is given as a SMILES string.

As a reminder, the IC50 is the concentration that gives 50% inhibition.

T1 sequence (Q13191 whole entry): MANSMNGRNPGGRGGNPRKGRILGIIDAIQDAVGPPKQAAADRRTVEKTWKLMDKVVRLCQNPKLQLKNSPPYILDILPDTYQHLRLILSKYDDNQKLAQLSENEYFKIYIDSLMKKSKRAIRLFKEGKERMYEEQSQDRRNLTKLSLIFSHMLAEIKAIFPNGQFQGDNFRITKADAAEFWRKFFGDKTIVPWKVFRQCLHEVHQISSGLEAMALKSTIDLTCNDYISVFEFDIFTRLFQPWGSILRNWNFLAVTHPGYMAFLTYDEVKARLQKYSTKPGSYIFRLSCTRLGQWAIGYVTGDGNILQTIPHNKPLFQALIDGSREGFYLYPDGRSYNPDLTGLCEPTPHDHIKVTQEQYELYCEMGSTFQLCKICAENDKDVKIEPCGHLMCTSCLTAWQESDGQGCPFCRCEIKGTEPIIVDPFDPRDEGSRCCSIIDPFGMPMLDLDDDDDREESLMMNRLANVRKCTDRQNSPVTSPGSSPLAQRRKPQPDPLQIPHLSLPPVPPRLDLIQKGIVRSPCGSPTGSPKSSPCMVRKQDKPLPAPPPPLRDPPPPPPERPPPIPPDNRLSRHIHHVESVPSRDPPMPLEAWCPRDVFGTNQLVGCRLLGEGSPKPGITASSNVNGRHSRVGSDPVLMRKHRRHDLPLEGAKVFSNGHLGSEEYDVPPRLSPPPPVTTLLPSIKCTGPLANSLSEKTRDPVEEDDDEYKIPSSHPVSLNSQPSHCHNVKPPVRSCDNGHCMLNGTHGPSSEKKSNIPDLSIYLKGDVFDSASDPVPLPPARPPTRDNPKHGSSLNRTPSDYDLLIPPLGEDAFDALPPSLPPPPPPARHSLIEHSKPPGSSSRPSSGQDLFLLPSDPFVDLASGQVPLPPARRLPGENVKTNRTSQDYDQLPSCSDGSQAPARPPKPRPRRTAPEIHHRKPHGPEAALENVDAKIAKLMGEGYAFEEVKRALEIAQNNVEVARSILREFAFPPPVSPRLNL

This assay addresses T1, CBL-B (Homo sapiens, UniProt Q13191).
T1 construct: GST
The assay is described as follows: CBL-B TR-FRET IC50 screening (E1/E2 ubiquitination, Biotin-Ubiquitin, Anti GST-Tb donor / Streptavidin-d2 acceptor). The format is biochemical. The following applies: CBL-B 10 nM final; 11-point titration from 100 uM; binned A-F; read-out: CBL-B TR-FRET activity IC50. Background: Time-resolved FRET reads energy transfer from a long-lived donor to a nearby acceptor.
Regarding `Cn1cnnc1C[C@H]1CCc2c1cccc2-n1cc2c(C(F)(F)F)cccn2c1=O` (single isomer, unassigned) [Compound 16], the IC50 was over 10000 nM.

Regarding `C[C@@H](c1cc(C(F)(F)F)c2cn(-c3cccc(C4(Cc5nncn5C)COC4)c3)c(=O)n2c1)N1CC2CC2C1` (single isomer, unassigned) [Compound 32], the IC50 was under 100 nM.

As for `Cn1cnnc1[C@H](F)C1(c2cccc(-n3cc4c(C(F)(F)F)cc(CN5CCC(F)CC5)cn4c3=O)c2)COC1` (single isomer, unassigned) [Compound 45], the IC50 is under 100 nM.

Regarding `C[C@H]1CCCN(Cc2cc(C(F)(F)F)c3cn(-c4cccc([C@]5(c6nncn6C)C[C@@H](C)C5)c4)c(=O)n3c2)C1` (single isomer, unassigned) [Compound 59], the IC50 was under 100 nM.

Regarding `C[C@H]1CCCN(Cc2cc(C(F)(F)F)c3cn(-c4cccc([C@]5(c6nncn6C)C[C@@H](C)C5)c4)c(=O)n3c2)C1` (single isomer, unassigned) [Compound 60], the IC50 was under 100 nM.

With `Cn1cnnc1CC1(c2cccc(-n3cc4c(Cl)cc(CN5CCC6(CC6)C5)cn4c3=O)c2)COC1` (single isomer, unassigned) [Compound 67], the IC50 is under 100 nM.

As for `C=C(C)C[C@@H](c1cccc(-n2cc3c(C(F)(F)F)cc(CN4CCC[C@H](C)C4)cn3c2=O)c1)c1nncn1C` (single isomer, unassigned) [Compound 68], the IC50 is under 100 nM.

With `Cn1cnnc1CC1(c2cccc(-n3cc4c(C(F)(F)F)cc(CO)cn4c3=O)c2)COC1` (single isomer, unassigned) [Compound 81], the IC50 lay in the range of 301 to 1000 nM.

As to `CN1CCC(c2cc(C(F)(F)F)c3cn(-c4cccc(C5(Cc6nncn6C)COC5)c4)c(=O)n3c2)CC1` (single isomer, unassigned) [Compound 82], the IC50 was under 100 nM.

With `CC(c1cc(C(F)(F)F)c2cn(-c3cccc(C4(Cc5nncn5C(F)F)COC4)c3)c(=O)n2c1)N1CCC(F)CC1` (single isomer, unassigned) [Compound 96], the concentration for half-maximal inhibition (IC50) was under 100 nM.

In the case of `CC(c1cc(C(F)(F)F)c2cn(-c3cccc(C4(Cc5nncn5C(F)F)COC4)c3)c(=O)n2c1)N1CCC(F)CC1` (single isomer, unassigned) [Compound 97], the IC50 was under 100 nM.

For `CC1CN(Cc2cc(C(F)(F)F)c3cn(-c4cccc([C@]5(Cc6nncn6C)C[C@@H](C#N)C5)c4)c(=O)n3c2)CCC1(F)F` (single isomer, unassigned) [Compound 99], the IC50 was under 100 nM.

Consider `CC1CN(Cc2cc(C(F)(F)F)c3cn(-c4cccc([C@]5(Cc6nncn6C)C[C@@H](C#N)C5)c4)c(=O)n3c2)CCC1(F)F` (single isomer, unassigned) [Compound 100], for which the IC50 was under 100 nM.

With `CC(c1cc(C(F)(F)F)c2cn(-c3cccc(C4(Cc5nncn5C)COC4)c3)c(=O)n2c1)N1CCC[C@H](C)C1` (single isomer, unassigned) [Compound 119], the IC50 is under 100 nM.

As to `CC(c1cc(C(F)(F)F)c2cn(-c3cccc(C4(Cc5nncn5C)COC4)c3)c(=O)n2c1)N1CCC[C@H](C)C1` (single isomer, unassigned) [Compound 120], the IC50 is under 100 nM.

In the case of `C[C@H]1CCCN(Cc2cc(C(F)(F)F)c3cn(-c4cccc([C@@H](c5nncn5C)C5COC5)c4)c(=O)n3c2)C1` (single isomer, unassigned) [Compound 134], the IC50 is 301 to 1000 nM.

As to `[2H]C([2H])([2H])n1cnnc1[C@@H](c1cccc(-n2cc3c(C(F)(F)F)cc(CN4CCC[C@H](C)C4)cn3c2=O)c1)C1CCC1` (single isomer, unassigned) [Compound 135], the IC50 was under 100 nM.

As to `[2H]C([2H])([2H])n1cnnc1[C@H](c1cccc(-n2cc3c(C(F)(F)F)cc(CN4CCC[C@H](C)C4)cn3c2=O)c1)C1CCC1` (single isomer, unassigned) [Compound 136], the IC50 lay within 301 to 1000 nM.

Regarding `[2H]C([2H])([2H])n1cnnc1[C@@H](c1cccc(-n2cc3c(C(F)(F)F)cc(CN4CCO[C@H](C)C4)cn3c2=O)c1)C1CCC1` (single isomer, unassigned) [Compound 137], the IC50 was under 100 nM.

Take `[2H]C([2H])([2H])n1cnnc1[C@H](c1cccc(-n2cc3c(C(F)(F)F)cc(CN4CCO[C@H](C)C4)cn3c2=O)c1)C1CCC1` (single isomer, unassigned) [Compound 138]: the concentration for half-maximal inhibition (IC50) was 1000 to 3000 nM.

In the case of `CC1CC(c2cccc(-n3cc4c(C(F)(F)F)cc(Br)cn4c3=O)c2)(c2nncn2C)C1` (single isomer, unassigned) [Compound 150], the IC50 was under 100 nM.

For `CC(C)C[C@H](c1cccc(-n2cc3c(C(F)(F)F)cc(CN4CCC[C@H](C)C4)cn3c2=O)c1)c1nncn1C` (single isomer, unassigned) [Compound 151], the IC50 was 301 to 1000 nM.

In the case of `CC(C)C[C@@H](c1cccc(-n2cc3c(C(F)(F)F)cc(CN4CCC[C@H](C)C4)cn3c2=O)c1)c1nncn1C` (single isomer, unassigned) [Compound 152], the IC50 was over 10000 nM.

On to `CC1CC(c2cccc(-n3cc4c(C(F)(F)F)cc(Br)cn4c3=O)c2)(c2nncn2C)C1` (single isomer, unassigned) [Compound 154], for which the IC50 is under 100 nM.

On to `CC(c1cc(C(F)(F)F)c2cn(-c3cccc(C4(Cc5nncn5C)COC4)c3)c(=O)n2c1)N1CCO[C@H](C)C1` (single isomer, unassigned) [Compound 156], for which the concentration for half-maximal inhibition (IC50) is under 100 nM.

In the case of `CC(c1cc(C(F)(F)F)c2cn(-c3cccc(C4(Cc5nncn5C)COC4)c3)c(=O)n2c1)N1CCO[C@H](C)C1` (single isomer, unassigned) [Compound 157], the IC50 was under 100 nM.

As for `Cn1cnnc1[C@@H](c1cccc(-n2cc3c(C(F)(F)F)cc(CN4CC[C@H](F)C4)cn3c2=O)c1)C1CCC1` (single isomer, unassigned) [Compound 159], the IC50 is under 100 nM.

On to `Cn1cnnc1[C@@H](c1cccc(-n2cc3c(C(F)(F)F)cc(CN4CCC(C)(F)CC4)cn3c2=O)c1)C1CCC1` (single isomer, unassigned) [Compound 161], for which the IC50 is under 100 nM.

As to `Cn1cnnc1[C@H](c1cccc(-n2cc3c(C(F)(F)F)cc(CN4CCC5(CC5)C4)cn3c2=O)c1)C1CCC1` (single isomer, unassigned) [Compound 162], the IC50 lay within 1000 to 3000 nM.

For `Cn1cnnc1[C@@H](c1cccc(-n2cc3c(C(F)(F)F)cc(CN4CCC5(CC5)C4)cn3c2=O)c1)C1CCC1` (single isomer, unassigned) [Compound 163], the IC50 was under 100 nM.

For `Cn1cnnc1[C@H](c1cccc(-n2cc3c(C(F)(F)F)cc(CN4CC5(CC5)C4)cn3c2=O)c1)C1CCC1` (single isomer, unassigned) [Compound 164], the 50% inhibitory concentration (IC50) was in the range of 3000 to 10000 nM.

With `Cn1cnnc1[C@@H](c1cccc(-n2cc3c(C(F)(F)F)cc(CN4CC5(CC5)C4)cn3c2=O)c1)C1CCC1` (single isomer, unassigned) [Compound 165], the IC50 was under 100 nM.

For `CC1CN(Cc2cc(C(F)(F)F)c3cn(-c4cccc([C@@H](c5nncn5C)C5CCC5)c4)c(=O)n3c2)CCC1(F)F` (single isomer, unassigned) [Compound 169], the IC50 lay in the range of 3000 to 10000 nM.

For the compound `CC1CN(Cc2cc(C(F)(F)F)c3cn(-c4cccc([C@@H](c5nncn5C)C5CCC5)c4)c(=O)n3c2)CCC1(F)F` (single isomer, unassigned) [Compound 170], the IC50 lay within 1000 to 3000 nM.

For `CC1CN(Cc2cc(C(F)(F)F)c3cn(-c4cccc([C@H](c5nncn5C)C5CCC5)c4)c(=O)n3c2)CCC1(F)F` (single isomer, unassigned) [Compound 171], the half-maximal inhibitory concentration (IC50) is under 100 nM.

Turning to `CC1CN(Cc2cc(C(F)(F)F)c3cn(-c4cccc([C@H](c5nncn5C)C5CCC5)c4)c(=O)n3c2)CCC1(F)F` (single isomer, unassigned) [Compound 172], the IC50 was under 100 nM.

Take `Cn1cnnc1[C@H](c1cccc(-n2cc3c(C(F)(F)F)cc(CN4CC[C@H](C#N)C4)cn3c2=O)c1)C1CCC1` (single isomer, unassigned) [Compound 173]: the IC50 was 3000 to 10000 nM.

As for `Cn1cnnc1[C@@H](c1cccc(-n2cc3c(C(F)(F)F)cc(CN4CC[C@H](C#N)C4)cn3c2=O)c1)C1CCC1` (single isomer, unassigned) [Compound 174], the IC50 was under 100 nM.

`Cn1cnnc1CC1(c2cccc(-n3cc4c(C(F)(F)F)cc(CN5CCCC(O)CC5)cn4c3=O)c2)COC1` (single isomer, unassigned) [Compound 176]: the IC50 is under 100 nM.

`Cn1cnnc1CC1(c2cccc(-n3cc4c(C(F)(F)F)cc(CN5CCCC(O)CC5)cn4c3=O)c2)COC1` (single isomer, unassigned) [Compound 177]: the IC50 is under 100 nM.

As to `CN1CCCCC1c1cc(C(F)(F)F)c2cn(-c3cccc(C4(Cc5nncn5C)COC4)c3)c(=O)n2c1` (single isomer, unassigned) [Compound 186], the IC50 lay within 100 to 300 nM.

Take `CN1CCCCC1c1cc(C(F)(F)F)c2cn(-c3cccc(C4(Cc5nncn5C)COC4)c3)c(=O)n2c1` (single isomer, unassigned) [Compound 187]: the half-inhibitory concentration (IC50) was 100 to 300 nM.

Consider `[2H]C([2H])([2H])n1cnnc1C1(c2cccc(-n3cc4c(C(F)(F)F)cc(CN5CCC[C@H](C)C5)cn4c3=O)c2)CC(C)C1` (single isomer, unassigned) [Compound 189], for which the half-inhibitory concentration (IC50) is under 100 nM.

Consider `CC1CC(c2cccc(-n3cc4c(C(F)(F)F)cc(CN5CCO[C@H](C)C5)cn4c3=O)c2)(c2nncn2C)C1` (single isomer, unassigned) [Compound 190], for which the IC50 is under 100 nM.

On to `CC(c1cc(C(F)(F)F)c2cn(-c3cccc([C@@H](c4nncn4C)C4CCC4)c3)c(=O)n2c1)N1CCC[C@H](C)C1` (single isomer, unassigned) [Compound 191], for which the IC50 is 301 to 1000 nM.

With `CC(c1cc(C(F)(F)F)c2cn(-c3cccc([C@@H](c4nncn4C)C4CCC4)c3)c(=O)n2c1)N1CCC[C@H](C)C1` (single isomer, unassigned) [Compound 192], the IC50 was under 100 nM.

As to `CC(c1cc(C(F)(F)F)c2cn(-c3cccc([C@H](c4nncn4C)C4CCC4)c3)c(=O)n2c1)N1CCC[C@H](C)C1` (single isomer, unassigned) [Compound 193], the IC50 was under 100 nM.

The record behind these values is US20240228482A1, “COMPOUNDS, COMPOSITIONS AND METHODS OF TREATING CANCER” (HOTSPOT THERAPEUTICS, INC., priority 2021, published 2024).
